Source: USRE48461E1, “Modulation of androgen receptor expression” (Ionis Pharmaceuticals, Inc., priority 2012, dated 2021)
Oligonucleotides are written 5' to 3', each unit as a sugar letter and its base; * is a phosphorothioate linkage, no mark a phosphodiester; rarer units and linkages stand in square brackets, end groups in braces. Plain capitals give the bases only. k = constrained ethyl (cEt); d = 2'-deoxy (DNA)

Legend:
TMPRSS2 mRNA = TMPRSS2 mRNA levels in LMR20 cells; type: cell-based, human; conditions: for TMPRSS2 mRNA levels (% baseline value) after treatment with DHT / TMPRSS2 mRNA levels (% baseline value) after treatment with R1881 / TMPRSS2 mRNA levels (% baseline value) of cells without AR agonist treatment: LMR20 cells; for TMPRSS2 mRNA levels (% baseline value) after treatment with DHT: DHT 10 nM 72 hrs; for TMPRSS2 mRNA levels (% baseline value) after treatment with R1881: R1881 10 nM 72 hrs; for TMPRSS2 mRNA levels (% baseline value) of cells without AR agonist treatment: no AR agonist
Protocol: LMR20 cells were plated at 1,500 cells per well in phenol red-free medium with CSS.

LMR20 cells = assay: Proliferation of MDV3100-resistant LMR20 cells (MTT; with R1881 or DHT); type: cell-based, human; conditions: 5 days
Protocol: LMR20 cells were plated at 1,500 cells per well in phenol red-free medium with charcoal-stripped fetal bovine serum (CSS), to remove any androgens from the medium (Life Technologies). […] The synthetic androgen agonist, R1881, (Takeda, A. N. et al., Mol. Pharmacol. 2007. 71: 473-82) was added on day 1 at 1 nM dose to a set of cells also treated with each of the antisense oligonucleotides. DHT was added on day 1 at a dose of 10 nM to another set of cells also treated with each of the antisense oligonucleotides. […] After a treatment period of 5 days, the proliferative ability of the cancer cells was measured by the standard MTT assay. Results are presented in Table 42 as percent inhibition of proliferation, relative to non-treated cells.

With “GTTGATTTAATGGTTG (all phosphorothioate, sugars by position not given here; further chemistry not fully specified) [ISIS 549458]” the “TMPRSS2 mRNA levels in LMR20 cells” value (TMPRSS2 mRNA; with or without DHT/R1881) was “reduced PSA levels and TMPRSS2 more extensively than the LNA gapmer ISIS 554221 or MDV3100”, the “Percent inhibition of LMR20 cell proliferation” value (shortened to “Percent inhibition”) (LMR20 cells; CSS + DHT, ASO 0.04 μM) was 0% and the “Percent inhibition” value (LMR20 cells; CSS + DHT, ASO 0.20 μM) was 25%. The “Percent inhibition” value (LMR20 cells; CSS + DHT, ASO 1.0 μM) was 60%, the “Percent inhibition” value (LMR20 cells; CSS + DHT, ASO 5.0 μM) was 70% and the “Percent inhibition” value (LMR20 cells; CSS + R1881, ASO 0.04 μM) was 0%. For the same substance, the “Percent inhibition” value (LMR20 cells; CSS + R1881, ASO 0.20 μM) was 22%, the “Percent inhibition” value (LMR20 cells; CSS + R1881, ASO 1.0 μM) was 59% and the “Percent inhibition” value (LMR20 cells; CSS + R1881, ASO 5.0 μM) was 74%. For the same substance, the “Percent inhibition” value (LMR20 cells; CSS, ASO 0.04 μM) was 0%, the “Percent inhibition” value (LMR20 cells; CSS, ASO 0.20 μM) was 0% and the “Percent inhibition” value (LMR20 cells; CSS, ASO 1.0 μM) was 0%. The “Percent inhibition” value (LMR20 cells; CSS, ASO 5.0 μM) was 5% and the LMR20 cell proliferation (LMR20 cells; in the presence of R1881 or DHT, 0.04-5.0 μM) was “significantly inhibited MDV3100-resistant prostate cancer cell proliferation in a dose dependent manner more extensively than ISIS 554221”.

With “549458 (kG*kT*kT*dG*dA*dT*dT*dT*dA*dA*dT*dG*dG*kT*kT*kG) [compound 549458]” the “TMPRSS2 mRNA levels (% baseline value) after treatment with DHT” value (TMPRSS2 mRNA; ASO 0.04 μM) was 127 % baseline value, the “TMPRSS2 mRNA levels (% baseline value) after treatment with DHT” value (TMPRSS2 mRNA; ASO 0.20 μM) was 119 % baseline value and the “TMPRSS2 mRNA levels (% baseline value) after treatment with DHT” value (TMPRSS2 mRNA; ASO 1.0 μM) was 106 % baseline value. For the same substance, the “TMPRSS2 mRNA levels (% baseline value) after treatment with DHT” value (TMPRSS2 mRNA; ASO 5.0 μM) was 91 % baseline value, the “TMPRSS2 mRNA levels (% baseline value) after treatment with R1881” value (TMPRSS2 mRNA; ASO 0.04 μM) was 137 % baseline value and the “TMPRSS2 mRNA levels (% baseline value) after treatment with R1881” value (TMPRSS2 mRNA; ASO 0.20 μM) was 119 % baseline value. The “TMPRSS2 mRNA levels (% baseline value) after treatment with R1881” value (TMPRSS2 mRNA; ASO 1.0 μM) was 96 % baseline value, the “TMPRSS2 mRNA levels (% baseline value) after treatment with R1881” value (TMPRSS2 mRNA; ASO 5.0 μM) was 96 % baseline value and the “TMPRSS2 mRNA levels (% baseline value) of cells without AR agonist treatment” value (TMPRSS2 mRNA; ASO 0.04 μM) was 110 % baseline value. For the same substance, the “TMPRSS2 mRNA levels (% baseline value) of cells without AR agonist treatment” value (TMPRSS2 mRNA; ASO 0.20 μM) was 85 % baseline value, the “TMPRSS2 mRNA levels (% baseline value) of cells without AR agonist treatment” value (TMPRSS2 mRNA; ASO 1.0 μM) was 54 % baseline value and the “TMPRSS2 mRNA levels (% baseline value) of cells without AR agonist treatment” value (TMPRSS2 mRNA; ASO 5.0 μM) was 62 % baseline value.
